Legend:
K562 = experiment: Cytotoxicity against human K-562 cells after 48 hrs by SRB assay; format: functional, cell-based; conditions: K562, 48 h
U-251 = experiment: Cytotoxicity against human U251 cells after 48 hrs by SRB assay; format: functional, cell-based; conditions: U-251, 48 h

SMILES	IC50 (K562) [µM]	IC50 (U-251) [µM]
COc1cccc2c1C(=O)c1c(O)c3c(c(O)c1C2=O)C[C@@](O)(C(=O)CO)C[C@@H]3O[C@H]1C[C@H](N)[C@H](O)[C@H](C)O1 [DOXORUBICIN]	0.28	0.32
C=C(C)[C@@H]1CC[C@@]2(C)[C@H]1[C@H]1CCC3[C@@]4(C)CC[C@H](O)C(C)(C)[C@@H]4CC[C@@]3(C)[C@]1(C)C[C@@H]2O (stereo not given in full) [CALENDULADIOL]	31.4	48.4
C=C(C)[C@@H]1CC[C@@]2(C)[C@H]1[C@H]1CC[C@@H]3[C@@]4(C)CC[C@H](OC(=O)/C=C/c5ccc(O)cc5)C(C)(C)[C@@H]4CC[C@@]3(C)[C@]1(C)C[C@@H]2O		41
